According to PMC9227536, “Prediction of Pharmacokinetics of IDP-73152 in Humans Using Physiologically-Based Pharmacokinetics” (Pharmaceutics, 2022):
Like-named read-outs stand apart in the source and are kept apart here.

Legend:
[1] = Blood partitioning (LC-MS/MS-based depletion method), rat; type: in vitro ADME; details: whole blood, rats blood, 0.3, 1, 3 μM, read-out: BP (blood-to-plasma concentration ratio)
Method: In this study, the partitioning of IDP-73152 in blood samples obtained from mice, rats, dogs, and humans was determined using the LC-MS/MS-based depletion method with slight modifications. DP-73152 was added to an aliquot (1 mL) of blank blood or plasma at a final concentration of 0.3, 1, or 3 μM. The mixture was incubated at 37 °C in a water bath for 60 min. After the incubation, the plasma was separated by centrifugation of the blood samples for 5 min at 10,000× g/4 °C and stored at -80 °C until analysis. The blood-to-plasma concentration ratio (BP) was calculated using the equation:(3) BP=[…], where […] is the concentration of the compound at the corresponding blood concentration in the plasma, and CPL is the concentration from the plasma sample separated from the incubated blood.

[2] = Metabolic stability in rat hepatocytes; type: in vitro ADME
Method: For the hepatocyte incubation study, rat hepatocytes were freshly prepared using the two-step collagenase perfusion method with slight modifications. After the isolation, cell viability during the preparation process was first determined by a trypan blue exclusion assay prior to the stability study. The preparation was considered adequate for subsequent studies if the viability was greater than 80%. When appropriate, the hepatocytes were resuspended in Williams' media E containing 10% fetal bovine serum, 1% penicillin-streptomycin, and 0.01% insulin-transferrin-selenium (i.e., 10 mg/mL insulin, 5.5 mg/mL transferrin, and 5 mg/mL selenium) at pH 7.4. […] Assuming first-order disappearance kinetics, the slope k of the logarithmically transformed IDP-73152 concentration in the sample versus time plot was determined by the linear regression analysis of the data. The total intrinsic clearance (CLint,mic, μL/min/mg protein for microsomal incubation study and CLint,hep, μL/min/million cells for hepatocytes incubation study) was then calculated using the following equations:(4) CLint, mic=k×Volume of incubation medium (μL)/Protein in incubation medium (mg) (5) CLint,hep=k×Volume of incubation (μL)/Number of cells in incubation (×10^6) The unbound intrinsic clearance, with respect to the whole liver ([…]), was then estimated for the two cases. […]

[3] = PK study in mice (intravenous and oral); type: in vivo, male ICR mice
Method: The in vivo experimental protocol was approved by the Institutional Animal Care and Use Committee of Research Laboratory at Ildong pharmaceutical Co., Ltd. (Ref. No.: IDL-PDF-001 and 09005-11004). Animals were acclimatized to the laboratory conditions for at least 1 week before the experiments and were kept in the standardized conditions (20–25 °C, 55 ± 5% humidity, and a 12 h light/dark cycle). The animals fasted overnight prior to drug administration, and food was resupplied 4 h post-dose. In this study, a single dose of IDP-73152 at 10 mg/kg (i.e., the injection volume of 5 mL/kg, IDP-73152 dissolved in saline) was intravenously administered to male ICR mice (body weight 18.2–21.4 g, Orient Bio Inc., Seongnam, Korea) via the tail vein. […] Blood samples (100 μL) were collected from the retroorbital plexus at 0.167, 0.333, 0.5, 1, 2, 4, or 8 h after the administration. Plasma was separated/collected from the blood samples by centrifugation for 5 min at 10,000× g/4 °C and stored at −80 °C until analysis. When necessary for a model independent PK analysis, a standard moment analysis was carried out with WinNonlin software using either representative (for the study with mice) or individual (for the study with rats, dogs, and humans) concentration–time profile(s). For the calculation of PBPK models, Berkeley Madonna 8.3.18 (Albany, CA, USA) was used with the fourth-order Runge–Kutta method for numerical integration.

[4] = Unbound fraction in plasma (rapid equilibrium dialysis), human; type: in vitro ADME; details: humans plasma, 0.3, 1, 3 μM, RED 5 h, read-out: fu,p
Method: The unbound fractions of IDP-73152 in various matrices were measured according to the manufacturer’s instructions for the rapid equilibrium dialysis (RED) device (ThermoFisher Scientific, Waltham, MA, USA). Briefly, IDP-73152 was added to the plasma or the microsomal/hepatocyte incubation buffer from various species (i.e., mouse, rat, dog, and human for microsomal incubation; rat for hepatocyte incubation) to obtain final concentrations of the compound at 0.3, 1, and 3 μM. After the membrane insert was placed in the RED plate, the solution containing IDP-73152 was added (400 µL) to the sample chamber, and the dialysis buffer (600 μL) was added to the buffer chamber. The RED plate was sealed with parafilm and then incubated at 37 °C in the orbital shaker (Lab Companion, Daejeon, Korea) at 100 rpm for 5 h. After a 50 μL aliquot was aspirated from both the sample and buffer chambers, an equal volume of protein-free buffer or blank medium was replaced in the aspirated sample or buffer to render the matrices compositionally identical. The IDP-73152 concentration in the buffer/sample chambers (i.e., CBuffer Chamber and CSample Chamber) was determined by an assay. Thus, the fraction unbound was defined as:(2) % Fraction unbound=(CBuffer Chamber/CSample Chamber)×100%

[5] = male, ICR, mouse, plasma, oral 20 mg/kg

## CC(C)(C)[C@H](NC(=O)[C@H](CC1CCCC1)CN(O)C=O)C(=O)N1CCC(NCc2cc(F)c(F)cc2F)CC1 [IDP-73152]
[1]
  blood plasma ratio at 60 min: 1.56 ± 0.37
[2]; freshly isolated hepatocytes in suspension, pH 7.4, rat hepatocytes 0.5 × 10^6 cells/mL, 1 μM, read-out: CL,int,hep
  hepatocyte CLint at 1 μM: 27.7 ± 3.2 µL/min/1e6 cells
[2]; rats, scaled from rat hepatocytes
  CLu,int,H: 6.82 ± 0.79 L/h
[3]; male, ICR, mouse, plasma, intravenous 10 mg/kg, moment analysis, read-out: Vss
  Vd: 1.43 L/kg
[3]; male, ICR, mouse, plasma, intravenous 10 mg/kg, read-out: t1/2 (converted)
  half-life: 43.9 min
[3]; male, ICR, mouse, plasma, intravenous 10 mg/kg, representative concentration–time profile, read-out: CLp (converted)
  clearance: 25.3 mL/min/kg
[3]; male, ICR, mouse, plasma, iv, 10 mg/kg, intravenous 10 mg/kg
  AUC(0-inf): 6590 ng·h/mL
[3]; [5]
  Cmax: 3100 ng/mL
  Tmax: 20 min
[3]; male, ICR, mouse, plasma, oral 20 mg/kg vs intravenous 10 mg/kg, read-out: F (bioavailability)
  bioavailability: 78.1%
[3]; male, ICR, mouse, plasma, oral 20 mg/kg, read-out: t1/2 (terminal phase half-life) (converted)
  half-life: 172 min
[3]; male, ICR, mouse, plasma, po, 20 mg/kg, oral 20 mg/kg
  AUC(0-inf): 10900 ng·h/mL
[3]; oral 20 mg/kg, 20 mg/kg
  AUCinf: 10300 ng·h/mL
[4]
  fraction unbound at 5 h: 0.0744 ± 0.0019
